The text below walks through data of patent US20200045974A1, “Substituted Oxadiazoles for Combating Phytopathogenic Fungi” (BASF SE, priority 2017, published 2020).

Type in all cases: in vivo
In assay [1] the test system is Phakopsora pachyrhizi. The experiment in a line: Curative control of soy bean rust on soy beans. Conditions: 32 ppm active compound, soy bean seedlings sprayed after inoculation, assessed after 14 days; untreated plants 100%. The method, then: (§1) This mixture was added to 25 mg of the compound to give a total of 5 mL. Water was then added to total volume of 100 mL. This stock solution was diluted with the described solvent-emulsifier-water mixture to the given concentration.
II.1) Curative Control of Soy Bean Rust on Soy Beans Caused by Phakopsora pachyrhizi
Leaves of pot-grown soy bean seedlings were inoculated with spores of Phakopsora pachyrhizi. To ensure the success of the artificial inoculation, the plants were transferred to a humid chamber with a relative humidity of about 95% and 20 to 24° C. for 24 hours. The next day the plants were cultivated for 3 days in a greenhouse chamber at 23 to 27° C. and a relative humidity between 60 and 80%. Then the plants were sprayed to run-off with an aqueous suspension, containing the concentration of active ingredient or their mixture as described below. The plants were allowed to air-dry. Then the trial plants were cultivated for 14 days in a greenhouse chamber at 23 to 27° C. and a relative humidity between 60 and 80%. The extent of fungal attack on the leaves was visually assessed as % diseased leaf area.

A further assay has as its system Puccinia recondite. The assay is described as follows: Curative control of brown rust on wheat. Conditions: 32 ppm active compound, wheat seedlings sprayed after inoculation, assessed after 8 days; untreated plants 90%. The method, then: as §1
II.3) Curative Control of Brown Rust on Wheat Caused by Puccinia Recondite
The first two developed leaves of pot-grown wheat seedling were dusted with spores of Puccinia recondite. To ensure the success the artificial inoculation, the plants were transferred to a humid chamber without light and a relative humidity of 95 to 99% and 20 to 24° C. for 24 hours. The next day the plants were cultivated for 3 days in a greenhouse chamber at 20 to 24° C. and a relative humidity between 65 and 70%. Then the plants were sprayed to run-off with an aqueous suspension, containing the concentration of active ingredient or their mixture as described below. The plants were allowed to air-dry. Then the trial plants were cultivated for 8 days in a greenhouse chamber at 20 to 24° C. and a relative humidity between 65 and 70%. The extent of fungal attack on the leaves was visually assessed as % diseased leaf area.

Assay [2] relates to Phakopsora pachyrhizi. The assay is described as follows: Protective control of soy bean rust on soy beans. The conditions noted are these: 32 ppm active compound, soy bean seedlings sprayed 2 days before inoculation, assessed after fourteen days; untreated plants 100%. On the procedure: as §1
II.2) Protective Control of Soy Bean Rust on Soy Beans Caused by Phakopsora pachyrhizi
Leaves of pot-grown soy bean seedlings were sprayed to run-off with an aqueous suspension, containing the concentration of active ingredient or their mixture as described below. The plants were allowed to air-dry. The trial plants were cultivated for 2 day in a greenhouse chamber at 23 to 27° C. and a relative humidity between 60 and 80%.Then the plants were inoculated with spores of Phakopsora pachyrhizi. To ensure the success the artificial inoculation, the plants were transferred to a humid chamber with a relative humidity of about 95% and 20 to 24° C. for 24 hours. The trial plants were cultivated for fourteen days in a greenhouse chamber at 23 to 27° C. and a relative humidity between 60 and 80%. The extent of fungal attack on the leaves was visually assessed as % diseased leaf area.

For the compound `O=C(NC12CC(C1)C2)c1ccc(-c2noc(C(F)(F)F)n2)cc1` [Ex-1, N-(1-bicyclo[1.1.1]pentanyl)-4-[5-(trifluoromethyl)-1,2,4-oxadiazol-3-yl]benzamide], the diseased leaf area in the assay on Phakopsora pachyrhizi [1] is recorded as 0%; in the assay on Puccinia recondite, 2%; in the assay with Phakopsora pachyrhizi [2], 0%.
